Data reported in patent US20220073942A1, “Cells with reduced inhibitor production and methods of use thereof” (PFIZER INC., priority 2018, published 2022).
Read-outs that look alike come from different tables or passages of the source.

How the values were obtained:
CHO cells (cell line A) = conditions: fresh Medium A supplemented with formate at 0, 2, 4 and 6 mM, growth monitored for 5 or 6 days, FIG. 3B
Procedure: CHO cells (cell line A or cell line B) producing a recombinant antibody were inoculated at low cell densities (0.1 E6 cells/mL) in various conditions in triplicates in 6-well plate cultures. The working volume for each well on day 0 was 4 mL. Cell line A was inoculated either in fresh Medium A or fresh Medium A supplemented with formate at various concentrations. Cell line B was inoculated either in fresh Medium A or fresh Medium A supplemented with glycerol at various concentrations. The concentrations tested for formate were [0, 2, 4 and 6 mM] and for glycerol were [0, 2 and 4 mM]. The 6-well plates were incubated on a shaking platform in 36.5C and 5% carbon dioxide. Cell growth in all the conditions was monitored for 5 or 6 days.

CHO cells (cell line B) = test: Effect of glycerol on growth (viable cell density) of CHO cells in 6-well plate culture; assay type: cell-based, Chinese hamster; conditions: fresh Medium A supplemented with glycerol at 0, 2 and 4 mM, growth monitored for 5 or 6 days, FIG. 3A

SMILES | concentration at which cell growth was suppressed (CHO cells (cell line A)) | concentration at which cell growth was suppressed (CHO cells (cell line A); listed as Formate) | concentration at which cell growth was suppressed (CHO cells (cell line B)) | concentration at which cell growth was suppressed (CHO cells (cell line B); listed as Glycerol)
O=CO [formate] | higher than 2 mM | ≥ 2 mM | – | –
OCC(O)CO [glycerol] | – | – | higher than 2 mM | ≥ 2 mM
